Data as given in patent publication US11952363B2, “Piperazine compounds for the treatment of autoimmune disease” (Hoffmann-La Roche Inc., priority 2018, dated 2024).
pIC50: −log10 of the molar value.

Tests used:
[1] = target: T1, CYP2D6 (Homo sapiens, UniProt P10635); test: CYP inhibition assay in human liver microsome; format: in vitro ADME; conditions: liver microsomes, probe dextromethorphan, 10 μM compound, dextromethorphan substrate, percentage inhibition < 0: not or weak inhibitor, read-out: CYP 2D6 inhibition % @10 μM
T1 construct: tissue BD-Gentest 452117; host or cells: human liver microsomes
Description: This is a high throughput screening assay used for assessment of reversible inhibition of CYP2D6 activity of test compounds in human liver microsome (HLM) in early discovery stage.
10 mM DMSO stock solutions of test compounds were diluted in DMSO to generate 2 mM intermediate stock solution. 250 nL of intermediate stock solution were transferred in duplicate into 3 separate 384 well microtitre plates (assay-ready plates). A mixture of HLM and each substrate was made up. 45 μL of HLM substrate mix was then transferred to each well of an assay ready plate and mixed. The negative (solvent) and positive control (standard inhibitor for CYP 2D6) were included in each assay ready plate. The assay ready plate was warmed to 37° C. in an incubator over 10 minutes. 5μL pre-warmed NADPH regenerating system was added to each incubation well to start the reaction. Final incubation volume was 50 μL. The assay plate then was placed back in the 37° C. incubator. After 10 minutes incubation, incubates were quenched by addition of 50 μL 100% acetonitrile containing internal standards (20 ng/mL D3-Dextrorphan). The supernatants were collected for RapidFire/MS/MS analysis.
RapidFire online solid phase extraction/sample injection system (Agilent) coupled with API4000 triple quadrupole mass spectrometer (AB Sciex) were used for sample analysis. The mobile phase composed of acetonitrile and water supplemented with 0.1% formic acid. A C4 solid phase extraction cartridge is used for sample separation. MS detection is achieved in positive ion MRM mode.
Peak areas for substrate, metabolite and internal standard are determined using the RapidFire integrator software (version 3.6.12009.12296). Peak area ratios (PAR) of metabolite and internal standard (stable-labelled metabolite) are then calculated. The measurement window for each experiment is then defined:
PAR (0% activity)=average PAR for all incubations containing concentrated inhibitor;
Par (100% activity)=average PAR for all incubations containing no inhibitor (DMSO controls);
% Activity (test inhibitor)
=[PAR(test inhibitor)-PAR(0% activity)]/[PAR(100% activity)-PAR(0% activity)];
% Inhibition (test inhibitor)=100-% Activity (test inhibitor).

[2] = target: T2, human TLR9 (Homo sapiens, UniProt Q9NR96); test: HEK293-Blue-hTLR-9 cells assay (SEAP reporter, ODN2006 stimulation); format: cell-based; conditions: HEK293-Blue-hTLR9 cells, ODN2006 ligand, 20 hrs incubation; read-out: HEK/hTLR9 IC50
T2 sequence (Q9NR96 26-1032): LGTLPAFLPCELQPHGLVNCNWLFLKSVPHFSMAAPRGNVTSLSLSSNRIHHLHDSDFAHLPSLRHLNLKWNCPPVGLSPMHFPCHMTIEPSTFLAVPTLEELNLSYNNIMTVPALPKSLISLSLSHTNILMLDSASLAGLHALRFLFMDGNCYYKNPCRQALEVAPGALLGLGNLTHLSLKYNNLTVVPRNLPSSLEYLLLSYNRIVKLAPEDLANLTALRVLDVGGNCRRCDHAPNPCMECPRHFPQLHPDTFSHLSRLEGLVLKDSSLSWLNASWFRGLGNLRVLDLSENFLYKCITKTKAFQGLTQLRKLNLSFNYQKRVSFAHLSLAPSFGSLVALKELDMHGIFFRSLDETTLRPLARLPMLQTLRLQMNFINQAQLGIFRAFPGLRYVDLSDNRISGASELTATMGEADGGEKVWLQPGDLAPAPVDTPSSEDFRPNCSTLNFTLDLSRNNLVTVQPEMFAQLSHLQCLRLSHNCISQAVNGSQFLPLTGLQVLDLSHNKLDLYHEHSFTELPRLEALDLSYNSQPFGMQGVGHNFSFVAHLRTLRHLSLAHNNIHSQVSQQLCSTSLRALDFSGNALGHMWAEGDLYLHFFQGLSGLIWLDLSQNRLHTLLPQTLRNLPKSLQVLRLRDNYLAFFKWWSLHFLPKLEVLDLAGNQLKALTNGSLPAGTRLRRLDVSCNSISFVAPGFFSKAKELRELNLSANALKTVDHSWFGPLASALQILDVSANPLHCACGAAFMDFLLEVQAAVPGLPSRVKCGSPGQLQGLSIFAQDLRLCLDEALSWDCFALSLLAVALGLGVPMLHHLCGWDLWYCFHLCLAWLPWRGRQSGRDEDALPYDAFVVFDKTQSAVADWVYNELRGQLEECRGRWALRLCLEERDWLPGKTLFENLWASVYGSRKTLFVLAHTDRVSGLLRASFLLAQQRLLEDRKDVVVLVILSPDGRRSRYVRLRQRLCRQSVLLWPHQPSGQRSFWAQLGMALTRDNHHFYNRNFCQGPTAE
Description: The following tests were carried out in order to determine the activity of the compounds of formula (I) in HEK293-Blue-hTLR-7/8/9 cells assay.
A stable HEK293-Blue-hTLR-9 cell line was purchased from InvivoGen (Cat.#: hkb-htlr9, San Diego, California, USA). These cells were originally designed for studying the stimulation of human TLR9 by monitoring the activation of NF-κB. A SEAP (secreted embryonic alkaline phosphatase) reporter gene was placed under the control of the IFN-β minimal promoter fused to five NF-κB and. AP-1-binding sites. The SEAP was induced by activating NF-κB and AP-1 via stimulating HEK-Blue hTLR9 cells with TLR9 ligands. Therefore the reporter expression was declined by TLR9 antagonist under the stimulation of a ligand, such as ODN2006 (Cat.#: tlr1-2006-1, Invivogen, San Diego, California, USA), for incubation of 20 his. The cell culture supernatant SEAP reporter activity was determined using QUANTI-Blue™ kit (Cat.#: rep-qb1, Invivogen, San Diego, California, USA) at a wavelength of 640 nm, a detection medium that turns purple or blue in the presence of alkaline phosphatase.
HEK293-Blue-hTLR9 cells were incubated at a density of 250,000-450,000 cells/mL in a volume of 170 μL in a 96-well plate in Dulbecco's Modified Eagle's medium (DMEM) containing 4.5 g/L glucose, 50 U/mL penicillin, […], […], 2 mM L-glutamine, 10% (v/v) heat-inactivated fetal bovine serum with addition of 20 μL test compound in a serial dilution in the presence of final DMSO at 1% and 10 p L of 20uM ODN2006 in above DMEM, perform incubation under 37° C. in a CO2 incubator for 20 hrs. Then 20 μL of the supernatant from each well was incubated with 180 μL Quanti-blue substrate solution at 37° C. for 2 h and the absorbance was read at 620˜655 nm using a spectrophotometer. The signaling pathway that TLR9 activation leads to downstream NF-κB activation has been widely accepted, and therefore similar reporter assay was modified for evaluating TLR9 antagonist.

T1 sequence (P10635 whole entry): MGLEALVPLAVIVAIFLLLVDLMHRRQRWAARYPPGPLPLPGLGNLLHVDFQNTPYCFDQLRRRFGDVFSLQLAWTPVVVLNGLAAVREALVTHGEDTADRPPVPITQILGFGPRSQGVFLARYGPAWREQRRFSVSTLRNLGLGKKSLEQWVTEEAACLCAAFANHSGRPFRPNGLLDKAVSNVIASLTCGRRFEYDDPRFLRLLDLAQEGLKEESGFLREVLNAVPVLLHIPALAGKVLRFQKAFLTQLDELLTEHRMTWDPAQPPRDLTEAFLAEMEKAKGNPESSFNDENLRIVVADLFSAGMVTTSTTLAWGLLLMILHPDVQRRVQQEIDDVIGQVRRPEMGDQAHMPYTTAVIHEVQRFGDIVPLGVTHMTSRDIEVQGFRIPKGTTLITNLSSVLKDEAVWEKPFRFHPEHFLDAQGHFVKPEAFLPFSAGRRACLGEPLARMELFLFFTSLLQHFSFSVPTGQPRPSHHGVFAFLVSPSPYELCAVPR

## CC1CN(c2ccc(C#N)c3ncccc23)CCN1CC(=O)Nc1ccc(N2CCNCC2)cc1 (stereo not drawn) [Example 17, 2-[4-(8-Cyano-5-quinolyl)-2-methyl-piperazin-1-yl]-N-(4-piperazin-1-ylpheny)acetamide]
[1]
  inhibition at 10 min, 10 µM: 7%
[2]
  pIC50: 6.99

## CC1CN(c2ccc(C#N)c3ncccc23)CCN1CC(=O)Nc1ccc2c(c1)CCNC2 (stereo not drawn) [Example 18, 2-[4-(8-Cyano-5-quinolyl)-2-methyl-piperazin-1yl]-N-(1,2,3,4-tetrahydroisoquinolin-6-yl)acetamide]
[1]
  inhibition at 10 min, 10 µM: 12.5%
[2]
  pIC50: 6.92

## CC1CN(c2ccc(C#N)c3ncccc23)CCN1CC(=O)N1CCC(C2CCN(C)CC2)CC1 (stereo not drawn) [Example 19, 5-[3-methyl-4-[2-[4-(1-methyl-4-piperidyl)-1-piperidyl]-2-oxo-ethyl]piperazin-1-yl]quinoline-8-carbonitrile]
[1]
  inhibition at 10 min, 10 µM: 14.5%
[2]
  pIC50: 6.94
